From ChEMBL document CHEMBL1772976, “Bathymodiolamides A and B, ceramide derivatives from a deep-sea hydrothermal vent invertebrate mussel, Bathymodiolus thermophilus” (J Nat Prod, 2011)

Key:
HeLa = experiment: Cytotoxicity against human HeLa cells after 48 hrs by MTT assay; assay type: functional, cell-based
MCF7 = experiment: Cytotoxicity against human MCF7 cells after 48 hrs by MTT assay; assay type: functional, cell-based; conditions: MCF7, 48 h

| Structure (SMILES) | IC50 (HeLa) | IC50 (MCF7) |
| --- | --- | --- |
| CCC/C=C\C/C=C\C/C=C\CCCCC(=O)O[C@@H](COC(=O)CCCCCCCCCCCCCCC)[C@H](O)[C@H](CO)NC(=O)CCCCCCCCCCC [BATHYMODIOLAMIDE A] | 400 nM | 100 nM |
| CCC/C=C\C/C=C\CCC(=O)O[C@@H](COC(=O)CCCCCCCCCCCCC)[C@H](O)[C@H](CO)NC(=O)CCCCCCCCCCC [BATHYMODIOLAMIDE B] | 500 nM | 200 nM |
